Assay results published in patent publication US11780901B2, “Analogues of parathyroid hormone (1-34) that function as agonists of the parathyroid hormone receptor-1 and display modified activity profiles” (Wisconsin Alumni Research Foundation, priority 2013, dated 2023).
Residue numbers refer to the chain shown, from its start.

How the values were obtained:
PTHR1-1363Y = biological target: T1, PTHR1-1363Y (Homo sapiens, UniProt Q03431, I363Y); assay: Activation of PTHR1 mutant PTHR1-1363Y; type: cell-based; details: data not shown
T1 construct: expressed in transfected cells
T1 sequence (Q03431 27-593 I363Y): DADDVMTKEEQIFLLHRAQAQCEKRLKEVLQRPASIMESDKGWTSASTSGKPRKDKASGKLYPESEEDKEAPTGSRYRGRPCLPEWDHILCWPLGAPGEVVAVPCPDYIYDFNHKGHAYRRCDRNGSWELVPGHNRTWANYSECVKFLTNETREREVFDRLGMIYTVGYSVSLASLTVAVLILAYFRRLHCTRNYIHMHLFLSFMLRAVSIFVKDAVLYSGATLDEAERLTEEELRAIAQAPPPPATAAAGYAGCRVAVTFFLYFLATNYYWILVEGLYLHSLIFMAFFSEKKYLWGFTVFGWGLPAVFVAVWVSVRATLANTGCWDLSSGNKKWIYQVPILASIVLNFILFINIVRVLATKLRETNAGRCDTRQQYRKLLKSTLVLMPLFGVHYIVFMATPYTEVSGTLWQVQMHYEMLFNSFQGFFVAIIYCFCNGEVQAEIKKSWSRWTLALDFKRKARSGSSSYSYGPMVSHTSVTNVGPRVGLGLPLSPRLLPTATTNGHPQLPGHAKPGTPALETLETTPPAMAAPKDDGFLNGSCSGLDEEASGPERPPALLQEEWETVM
From the text: (§1) Reciprocal point mutations of PTHR1 were investigated to see if they would enhance the signaling activity of PTHR2-selective agonists.

PTHR1 [1] = biological target: T2, PTHR1 (Homo sapiens, UniProt Q03431); assay: PTHR1 activation, cAMP production (GloSensor) in HEK293 cells; type: cell-based; parameters: expressed in transfected cells
T2 sequence (Q03431 27-593): T1 sequence (Q03431 27-593 I363Y) with Y337I

PTHR2 [2] = biological target: T3, PTHR2 (Homo sapiens, UniProt P49190); assay: PTHR2 activation, cAMP production (GloSensor) in HEK293 cells; type: cell-based; parameters: expressed in transfected cells; details: HEK293
T3 sequence (P49190 25-550): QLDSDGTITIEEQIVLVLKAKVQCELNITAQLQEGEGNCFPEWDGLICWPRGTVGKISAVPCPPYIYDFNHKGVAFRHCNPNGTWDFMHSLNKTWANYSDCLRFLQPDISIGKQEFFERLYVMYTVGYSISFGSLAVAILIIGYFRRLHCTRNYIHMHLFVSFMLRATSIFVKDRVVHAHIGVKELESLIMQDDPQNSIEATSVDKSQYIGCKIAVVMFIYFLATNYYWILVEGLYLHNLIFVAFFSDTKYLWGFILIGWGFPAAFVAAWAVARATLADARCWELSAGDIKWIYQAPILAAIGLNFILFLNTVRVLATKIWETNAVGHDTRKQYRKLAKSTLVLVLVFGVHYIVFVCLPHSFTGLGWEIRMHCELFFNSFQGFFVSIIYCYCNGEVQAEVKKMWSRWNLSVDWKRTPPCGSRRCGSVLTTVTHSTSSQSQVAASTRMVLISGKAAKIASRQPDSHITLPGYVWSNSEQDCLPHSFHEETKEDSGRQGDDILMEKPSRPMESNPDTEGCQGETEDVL
In short: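 HEK293 cells stably expressing PTHR2; receptor activation read as cAMP production by GloSensor luminescence. Dose-response curves fit with a four-parameter sigmoidal equation; data are mean±s.e.m. of four independent measurements.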

PTHR2 [3] = biological target: T3, PTHR2; assay: Wash-out assay, duration of PTHR2 activation; type: cell-based; parameters: expressed in transfected cells; host or cells: cells stably expressing PTHR2; details: for Normalized ligand-off AUC: after washout
From the text: Duration of activation for PTHR1 and PTHR2. To assess the duration of PTHR1 and PTHR2 activation induced by α/β-peptides 14 and 15, the time course of cAMP production by each receptor was examined after stimulation with an agonist and subsequent washing of the cells to remove unbound peptide (wash-out assay). […] During the initial “ligand-on” phase, cells stably expressing PTHR1 or PTHR2 were stimulated with an agonist concentration corresponding to ˜EC80; the medium contained D-luciferin. […] After the addition of fresh medium containing D-luciferin, the luminescence decay is measured. The area under the “ligand-off” curve (AUC) reflects the duration of signaling, which may be related to residence time of the agonist on the receptor but could have other origins at the molecular level.

R^0 state of PTHR1 = biological target: T4, R^0 state of PTHR1 (Homo sapiens, UniProt Q03431); details: relative to PTH (1-34); cited from earlier work
T4 construct: expressed in transfected cells; host or cells: COS-7, transient; membranes
T4 sequence (Q03431 27-593): T1 sequence (Q03431 27-593 I363Y) with Y337I

PTHR1 [4] = biological target: T2, PTHR1; assay: Functional selectivity (Gs activation/cAMP production vs βarr recruitment); type: cell-based; parameters: expressed in transfected cells; host or cells: cells stably expressing PTHR1; details: cAMP activation vs βarr1 and βarr2 recruitment, relative to PTH (1-34)
Description: More specifically, the initial studies that yielded the compounds disclosed and claimed herein were conducted to determine whether there is a correlation between βarr recruitment and receptor residence time of a PTHR1 agonist. The initial studies were thus conducted in two steps. First, the functional selectivity (Gs activation as indicated by cAMP production vs. βarr recruitment) of several PTHR1 agonists that display substantial differences in signaling duration were evaluated. Second, novel PTHR1 agonists were designed that have high functional selectivity and evaluated the signaling duration of these biased agonists.
The functional selectivity of BA058 is more significant than that of PTHrP. […] LA-PTH is a long-acting PTH analog. […] The middle panels in FIG. 2 are graphs depicting, from left-to-right: βarr1 and βarr2 recruitment, presented as normalized BRET signals (bioluminescence resonance energy transfer) as a function of the log of the peptide concentration, and cAmp activation presented as normalized RLU signals (relative light units) as a function of the log of the peptide concentration. Red=PTH. Orange=LA=LA−PTH. Blue=BA058. Green=PTHrP. (BRET assays are well known and suitable kits are available commercially. See, for example, Promega's “NanoBRET” kits, catalogs nos. N1821 and N1811; Promega Corporation, Fitchburg, Wis.). The table at the bottom of FIG. 2 presents the pEC50 and Emax values for the […] and βarr2 recruitment and cAMP activation. FIG. 3 presents the data for the bias of the activity—either toward βarr recruitment or cAMP activation.
Incorporating (R*)-β^2Leu/(D)-Leu at the 7th position or (R*)-β^2Nle at the 8th position leads to high Gs-biased agonism. […] (D)-Nle is poorly tolerated at the 8th position for both cAMP signaling and βarr recruitment. The top panels in FIG. 5 are graphs depicting, from left-to-right: βarr1 and βarr2 recruitment, presented as normalized BRET signals as a function of the log of the peptide concentration, and cAmp activation presented as normalized RLU signals as a function of the log of the peptide concentration. […]

PTHR1-L2891 = biological target: T5, PTHR1-L2891 (Homo sapiens, UniProt Q03431, L289I); assay: Activation of PTHR1 mutant PTHR1-L2891; type: cell-based; details: data not shown
T5 construct: expressed in transfected cells
T5 sequence (Q03431 27-593 L289I): T1 sequence (Q03431 27-593 I363Y) with L263I, Y337I
From the text: as §1

| agonist activity at PTHR1-1363Y (in words) (PTHR1-1363Y) | Emax (PTHR1 [1]; HEK293) [%] | PTHR1 agonist potency decline (PTHR1 [1]; relative to PTH(1-34)-NH2) [fold] | Normalized ligand-off AUC (PTHR2 [3]; PTHR2, PTH(1-34)-NH2 = 100, listed as α/β-peptide 1) | Normalized ligand-off AUC (PTHR2 [3]; PTHR2, PTH(1-34)-NH2 = 100, listed as α/β-peptide 15) | Emax (PTHR2 [3]; read-out: Normalized ligand-on Emax) [%] | agonist activity at PTHR1-L2891 (in words) (PTHR1-L2891) | PTHR1 agonist activity (in words) (PTHR1 [1]; wild-type PTHR1) | Normalized ligand-on Emax (PTHR2 [3]; PTHR2, agonist at ~EC80, PTH(1-34)-NH2 = 100) | Compound | Emax (PTHR2 [2]) [%] | R0 affinity (in words) (R^0 state of PTHR1) | signaling bias / functional selectivity (in words) (PTHR1 [4]) |
| --- | --- | --- | --- | --- | --- | --- | --- | --- | --- | --- | --- | --- |
| even less susceptible to activation | 79 ± 6 | ~100 | 197 ± 16 | more prolonged signaling | 103 ± 1 |  |  |  | CC[C@H](C)[C@H](NC(=O)[C@H](CCC(=O)O)NC(=O)[C@H](CO)NC(=O)[C@@H](CNC(=O)[C@@H](N)CO)C(C)C)C(=O)N[C@@H](CCC(N)=O)CC(=O)N[C@@H](CC(C)C)C(=O)N[C@@H](CCSC)C(=O)N[C@@H](Cc1c[nH]cn1)C(=O)N[C@@H](CC(N)=O)C(=O)N[C@@H](CC(C)C)C(=O)NCC(=O)N[C@@H](CCCCN)C(=O)N[C@@H](Cc1c[nH]cn1)C(=O)N[C@@H](CC(C)C)C(=O)N[C@@H](CC(N)=O)C(=O)N[C@@H](CO)C(=O)N[C@@H](CCSC)C(=O)N[C@@H](CCC(=O)O)C(=O)N[C@@H](CCCNC(=N)N)C(=O)N[C@H](C(=O)N[C@@H](CCC(=O)O)C(=O)N[C@@H](Cc1c[nH]c2ccccc12)C(=O)N[C@@H](CC(C)C)C(=O)N[C@@H](CCCNC(=N)N)C(=O)N[C@@H](CCCCN)C(=O)N[C@@H](CCCCN)C(=O)N[C@@H](CC(C)C)C(=O)N[C@@H](CCC(N)=O)C(=O)N[C@@H](CC(=O)O)C(=O)N[C@H](C(=O)N[C@@H](Cc1c[nH]cn1)C(=O)N[C@@H](CC(N)=O)C(=O)N[C@@H](Cc1ccccc1)C(N)=O)C(C)C)C(C)C [Ligand 15] | 104 ± 2 |  |  |
|  |  |  |  |  |  |  |  |  | LA-PTH: long-acting PTH analog (AVAEIQLMHQRAKWIQDARRRAFLHKLIAEIHTAEI; Long-acting (LA)-PTH, a parathyroid hormone analog) |  | high R0 affinity | biased toward βarr1 and βarr2 recruitment relative to cAMP activation |
| very weak agonist |  |  |  |  |  | very weak agonist | does not activate | 99 ± 1 | TIP39-NH2: tuberoinfundibular peptide of 39 residues, naturally PTHR2-selective agonist [reference compound] |  |  |  |
